Values quoted from earlier work as cited in PubChem BioAssay AID1259409 (Chemical Carcinogenesis Research Information System (CCRIS), 2018).

Tested on: rodent chemically induced tumor inhibition, incidence and multiplicity
Assay: CCRIS tumor inhibitor studies
Details: Route [Inhibitor]: ORAL, Promoter: NONE USED

Question: For `CC1=C(CC(=O)O)c2cc(F)ccc2/C1=C\c1ccc(S(C)=O)cc1` (stereo unspecified), which “tumour outcome (control, treated, inhibition, significance)” value (Carcinogen: 1,2-DIMETHYLHYDRAZINE HYDROCHLORIDE, 306-37-6, Dose [Inhibitor]: 5 MG/KG BW IN DRINKING WATER ADMINISTERED CONCURRENTLY WITH CARCINOGEN FOR 24 WK (STUDY DURATION: 24 WK), Species: MOUSE, Strain/Sex: BALB/FEMALE, Target Tissue: Type of Lesion: COLON: MICROADENOMA, Dose [Carcinogen]: 25 MG/KG BW IN 0.4% EDTA AND 0.9% NORMAL SALINE 1/WK FOR 24 WK) is on record?
Answer: 35/38 (92%), 18/38 (47%), 49%, not calculated

Question: And the “tumour outcome (control, treated, inhibition, significance)” value (Carcinogen: 1,2-DIMETHYLHYDRAZINE HYDROCHLORIDE, 306-37-6, Dose [Inhibitor]: 5 MG/KG BW IN DRINKING WATER BEGINNING 10 D POST LAST CARCINOGEN DOSE AND CONTINUING FOR 78 D (STUDY DURATION: 28 WK), Species: MOUSE, Strain/Sex: BALB/FEMALE, Target Tissue: Type of Lesion: COLON: MICROADENOMA, Dose [Carcinogen]: 25 MG/KG BW IN 0.4% EDTA AND 0.9% NORMAL SALINE 1/WK FOR 17 WK)?
Answer: 15/18 (83%), 13/18 (72%), 13%, not calculated

Question: And the “tumour outcome (control, treated, inhibition, significance)” value (Carcinogen: 1-METHYL-1-NITROSOUREA, 684-93-5, Dose [Inhibitor]: 0, 0.06% IN A PURIFIED HIGH-FAT (24.6%) DIET FOR 37 WK BEGINNING 1 WK POST CARCINOGEN DOSE (STUDY DURATION:38 WK), Species: RAT, Strain/Sex: SPRAGUE-DAWLEY/FEMALE, Target Tissue: Type of Lesion: MAMMARY GLAND: CARCINOMA, Dose [Carcinogen]: 12.5 MG/KG BW ONCE)?
Answer: 30%, 9%, 70%, p<0.05

Question: And the “tumour outcome (control, treated, inhibition, significance)” value (Carcinogen: 1-METHYL-1-NITROSOUREA, 684-93-5, Dose [Inhibitor]: 0, 0.06% IN DIET FOR DURATION OF STUDY BEGINNING 7 D POST CARCINOGEN DOSE (STUDY DURATION: 24 WK), Species: RAT, Strain/Sex: SPRAGUE-DAWLEY/FEMALE, Target Tissue: Type of Lesion: MAMMARY GLAND: ADENOCARCINOMA, Dose [Carcinogen]: 50 MG/KG ONCE)?
Answer: 93%, 87%, 6%, not significant

Question: What about the “tumour outcome (control, treated, inhibition, significance)” value (Carcinogen: 4-(METHYLNITROSAMINO)-1-(3-PYRIDYL)-1-BUTANONE, 64091-91-4, Dose [Inhibitor]: 0, 0.13 G/KG DIET (EFFECTIVE DOSE 0.95 UMOL/D) BEGINNING 2 WK PRIOR TO CARCINOGEN TREATMENT AND CONTINUING FOR DURATION, Species: MOUSE, Strain/Sex: STRAIN-A/FEMALE, Target Tissue: Type of Lesion: LUNG: TUMORS, Dose [Carcinogen]: 9.0-9.2 MG/MOUSE (TOTAL DOSE) IN DRINKING WATER ADMINISTERED OVER 7 WK) of the same molecule?
Answer: 28/28 (100%), 23/25 (92%), 8%, not significant

Question: What about the “tumour outcome (control, treated, inhibition, significance)” value (Carcinogen: 4-(METHYLNITROSAMINO)-1-(3-PYRIDYL)-1-BUTANONE, 64091-91-4, Dose [Inhibitor]: 0, 15 MG/KG BW IN DIET FOR DURATION OF STUDY BEGINNING 2 WK PRIOR TO CARCINOGEN TREATMENT (STUDY DURATION: 25 WK), Species: MOUSE, Strain/Sex: STRAIN-A/FEMALE, Target Tissue: Type of Lesion: LUNG: TUMOR, Dose [Carcinogen]: 9.1 MG/MOUSE (TOTAL DOSE) ADMINISTERED IN DRINKING WATER OVER 7 WK) of the same molecule?
Answer: 23/24 (96%), 25/25 (100%), -4%, not significant

Question: And the outcome (Carcinogen: 4-(METHYLNITROSAMINO)-1-(3-PYRIDYL)-1-BUTANONE, 64091-91-4, Dose [Inhibitor]: 0, 123 MG/KG DIET FOR 2 WK BEGINNING 2 WK PRIOR TO CARCINOGEN TREATMENT (STUDY DURATION: 18 WK), Species: MOUSE, Strain/Sex: STRAIN-A/FEMALE, Target Tissue: Type of Lesion: LUNG: TUMOR, Dose [Carcinogen]: 2 MG IN 0.5 ML 0.9% SALINE ONCE)?
Answer: 25/25 (100%), 20/20 (100%), o%, not significant

Question: What about the outcome (Carcinogen: 4-(METHYLNITROSAMINO)-1-(3-PYRIDYL)-1-BUTANONE, 64091-91-4, Dose [Inhibitor]: 0, 123 MG/KG DIET FOR 18 WK BEGINNING 2 WK PRIOR TO CARCINOGEN TREATMENT (STUDY DURATION: 18 WK), Species: MOUSE, Strain/Sex: STRAIN-A/FEMALE, Target Tissue: Type of Lesion: LUNG: TUMOR, Dose [Carcinogen]: 2 MG IN 0.5 ML 0.9% SALINE ONCE) of the same molecule?
Answer: 25/25 (100%), 24/24 (100%), o%, not significant

Question: What about the outcome (Carcinogen: 4-(METHYLNITROSAMINO)-1-(3-PYRIDYL)-1-BUTANONE, 64091-91-4, Dose [Inhibitor]: 0, 123 MG/KG DIET FOR 25 WK BEGINNING 2 WK PRIOR TO CARCINOGEN TREATMENT (STUDY DURATION: 25 WK), Species: MOUSE, Strain/Sex: STRAIN-A/FEMALE, Target Tissue: Type of Lesion: LUNG: TUMOR, Dose [Carcinogen]: 62.4 UG/ML IN DRINKING WATER FOR 7 WK FOR A CUMULATIVE DOSE OF 9.1 MG/MOUSE) of the same molecule?
Answer: 25/25 (100%), 24/24 (100%), o%, not significant

Question: What about the “tumour outcome (control, treated, inhibition, significance)” value (Carcinogen: 4-(METHYLNITROSAMINO)-1-(3-PYRIDYL)-1-BUTANONE, 64091-91-4, Dose [Inhibitor]: 0, 123 MG/KG IN DIET FOR 9 WK BEGINNING 2 WK PRIOR TO CARCINOGEN TREATMENT (STUDY DURATION: 25 WK), Species: MOUSE, Strain/Sex: STRAIN-A/FEMALE, Target Tissue: Type of Lesion: FORESTOMACH: TUMOR, Dose [Carcinogen]: 9.1 MG IN DRINKING WATER FOR 7 WK) of the same molecule?
Answer: 7/25 (28%), 2/25 (8%), 71%, not significant

Question: What about the “tumour outcome (control, treated, inhibition, significance)” value (Carcinogen: 4-(METHYLNITROSAMINO)-1-(3-PYRIDYL)-1-BUTANONE, 64091-91-4, Dose [Inhibitor]: 0, 123 MG/KG IN DIET FOR 16 WK BEGINNING POST CARCINOGEN TREATMENT (STUDY DURATION: 25 WK), Species: MOUSE, Strain/Sex: STRAIN-A/FEMALE, Target Tissue: Type of Lesion: FORESTOMACH: TUMOR, Dose [Carcinogen]: 9.1 MG IN DRINKING WATER FOR 7 WK) of the same molecule?
Answer: 7/25 (28%), 3/22 (14%), 50%, not significant

Question: What about the “tumour outcome (control, treated, inhibition, significance)” value (Carcinogen: 4-(METHYLNITROSAMINO)-1-(3-PYRIDYL)-1-BUTANONE, 64091-91-8, Dose [Inhibitor]: 0, 123 MG/KG IN DIET FOR 25 WK BEGINNING 2 WK PRIOR TO CARCINOGEN TREATMENT (STUDY DURATION: 25 WK), Species: MOUSE, Strain/Sex: STRAIN-A/FEMALE, Target Tissue: Type of Lesion: FORESTOMACH: TUMOR, Dose [Carcinogen]: 9.1 MG IN DRINKING WATER FOR 7 WK) of the same molecule?
Answer: 7/25 (28%), 1/25 (4%), 86%, p<0.05

Question: What about the “tumour outcome (control, treated, inhibition, significance)” value (Carcinogen: AZOXYMETHANE, 25843-45-2, Dose [Inhibitor]: 0, 160 PPM IN DIET FOR DURATION OF STUDY BEGINNING 2 WK PRIOR TO CARCINOGEN TREATMENT (STUDY DURATION: 54 WK), Species: RAT, Strain/Sex: F344/MALE, Target Tissue: Type of Lesion: COLON: ADENOCARCINOMA, Dose [Carcinogen]: 15 MG/KG BW 1/WK FOR 2 WK) of the same molecule?
Answer: 81%, 47%, 42%, p<0.01

Question: And the “tumour outcome (control, treated, inhibition, significance)” value (Carcinogen: AZOXYMETHANE, 25843-45-2, Dose [Inhibitor]: 0, 320 PPM IN DIET FOR 38 WK BEGINNING 14 WK POST CARCINOGEN TREATMENT (STUDY DURATION: 54 WK), Species: RAT, Strain/Sex: F344/MALE, Target Tissue: Type of Lesion: COLON: ADENOCARCINOMA, Dose [Carcinogen]: 15 MG/KG BW 1/WK FOR 2 WK)?
Answer: 81%, 26%, 68%, p<0.0001

Question: And the “tumour outcome (control, treated, inhibition, significance)” value (Carcinogen: AZOXYMETHANE, 25843-45-2, Dose [Inhibitor]: 0, 320 PPM IN DIET FOR DURATION OF STUDY BEGINNING 2 WK PRIOR TO CARCINOGEN TREATMENT (STUDY DURATION: 54 WK), Species: RAT, Strain/Sex: F344/MALE, Target Tissue: Type of Lesion: COLON: ADENOCARCINOMA, Dose [Carcinogen]: 15 MG/KG BW 1/WK FOR 2 WK)?
Answer: 81%, 36%, 56%, p<0.0001

Question: What about the “tumour outcome (control, treated, inhibition, significance)” value (Carcinogen: AZOXYMETHANE, 25843-45-2, Dose [Inhibitor]: 0, 400 PPM IN DIET FOR 29 WK BEGINNING 1 WK POST CARCINOGEN TREATMENT (STUDY DURATION: 32 WK), Species: RAT, Strain/Sex: F344/MALE, Target Tissue: Type of Lesion: COLON: ADENOMA, Dose [Carcinogen]: 15 MG/KG BW 1/WK FOR 2 WK) of the same molecule?
Answer: 77%, 30%, 61%, p<0.05

Question: And the “tumour outcome (control, treated, inhibition, significance)” value (Carcinogen: AZOXYMETHANE, 25843-45-2, Dose [Inhibitor]: 0, 400 PPM IN DIET FOR 29 WK BEGINNING 1 WK POST CARCINOGEN TREATMENT (STUDY DURATION: 32 WK), Species: RAT, Strain/Sex: F344/MALE, Target Tissue: Type of Lesion: COLON: CARCINOMA, Dose [Carcinogen]: 15 MG/KG BW 1/WK FOR 2 WK)?
Answer: 53%, 13%, 75%, p<0.05

Question: What about the “tumour outcome (control, treated, inhibition, significance)” value (Carcinogen: N-BUTYL-N-(4-HYDROXYBUTYL)NITROSAMINE, 3817-11-6, Dose [Inhibitor]: 0, 200 MG/KG DIET FOR 24 WK BEGINNING 1 WK PRIOR TO CARCINOGEN TREATMENT (STUDY DURATION: 24 WK), Species: MOUSE, Strain/Sex: BDF/MALE, Target Tissue: Type of Lesion: URINARY BLADDER: TRANSITIONAL CELL CARCINOMA, Dose [Carcinogen]: 7.5 MG 1/WK FOR 8 WK) of the same molecule?
Answer: 20/74 (27%), 6/73 (8%), 70%, p<0.01

Question: And the “tumour outcome (control, treated, inhibition, significance)” value (Carcinogen: N-BUTYL-N-(4-HYDROXYBUTYL)NITROSAMINE, 3817-11-6, Dose [Inhibitor]: 0, 400 MG/KG DIET FOR 24 WK BEGINNING 1 WK PRIOR TO CARCINOGEN TREATMENT (STUDY DURATION: 24 WK), Species: MOUSE, Strain/Sex: BDF/MALE, Target Tissue: Type of Lesion: URINARY BLADDER: TRANSITIONAL CELL CARCINOMA, Dose [Carcinogen]: 7.5 MG 1/WK FOR 8 WK)?
Answer: 20/74 (27%), 2/75 (3%), 89%, p<0.01

Question: And the “tumour outcome (control, treated, inhibition, significance)” value (Carcinogen: N-NITROSOMETHYLBENZYLAMINE, 937-40-6, Dose [Inhibitor]: 0, 125 PPM IN DIET FOR DURATION OF STUDY BEGINNING 1 WK POST CARCINOGEN TREATMENT (STUDY DURATION: 25 WK), Species: RAT, Strain/Sex: F344/MALE, Target Tissue: Type of Lesion: ESOPHAGUS: TUMOR, Dose [Carcinogen]: 1 MG/KG 3/WK FOR 5 WK)?
Answer: 15/15 (100%), 14/15 (93%), 7%, not significant

Question: What about the “tumour outcome (control, treated, inhibition, significance)” value (Carcinogen: N-NITROSOMETHYLBENZYLAMINE, 937-40-6, Dose [Inhibitor]: 0, 125 PPM IN DIET FOR DURATION OF STUDY BEGINNING 2 WK PRIOR TO CARCINOGEN TREATMENT (STUDY DURATION: 25 WK), Species: RAT, Strain/Sex: F344/MALE, Target Tissue: Type of Lesion: ESOPHAGUS: TUMOR, Dose [Carcinogen]: 1 MG/KG 3/WK FOR 5 WK) of the same molecule?
Answer: 15/15 (100%), 14/15 (93%), 7%, not significant
